According to PubChem BioAssay AID248 (DTP/NCI, 2004):
Several values for one entry are separate records, joined by “and”; a condition that tells them apart may be missing. Identical values can stand only once. Toxic doses and inconclusive results are not listed. No stated cut-off is given here; in the data, active means T/C of 150% or more; inactive means T/C below 125%.

System: L1210 leukemia ip in BDF1 mice, survival T/C
Test: NCI In Vivo Anticancer Drug Screen. Data for tumor model L1210 Leukemia (intraperitoneal) in B6D2F1 (BDF1) mice
Details: endpoint: mean survival time, higher = longer survival
Method in brief: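 Read-out is survival time, reported as the treated-group measurement over the vehicle-control measurement.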

[1] = dose: 100.0 mg/kg/injection, schedule: Q04DX002 (ip), vehicle: saline with Tween-80
[2] = dose: 200.0 mg/kg/injection, schedule: Q04DX002 (ip), vehicle: saline with Tween-80
[3] = dose: 400.0 mg/kg/injection, schedule: Q04DX002 (ip), vehicle: saline with Tween-80
[4] = dose: 100.0 mg/kg/injection, schedule: Q01DX001 (ip), vehicle: saline
[5] = dose: 200.0 mg/kg/injection, schedule: Q01DX001 (ip), vehicle: saline
[6] = dose: 400.0 mg/kg/injection, schedule: Q01DX001 (ip), vehicle: saline
[7] = dose: 50.0 mg/kg/injection, schedule: Q01DX001 (ip), vehicle: saline
[8] = dose: 100.0 mg/kg/injection, schedule: Q01DX009 (ip), vehicle: Klucel (hydroxypropylcellulose) (HPC)
[9] = dose: 200.0 mg/kg/injection, schedule: Q01DX009 (ip), vehicle: Klucel (hydroxypropylcellulose) (HPC)
[10] = dose: 100.0 mg/kg/injection, schedule: Q01DX009 (ip), vehicle: saline with Tween-80
[11] = dose: 100.0 mg/kg/injection, schedule: Q04DX003 (ip), vehicle: saline with Tween-80
[12] = dose: 200.0 mg/kg/injection, schedule: Q01DX009 (ip), vehicle: saline with Tween-80
[13] = dose: 200.0 mg/kg/injection, schedule: Q04DX003 (ip), vehicle: saline with Tween-80
[14] = dose: 400.0 mg/kg/injection, schedule: Q01DX009 (ip), vehicle: saline with Tween-80
[15] = dose: 400.0 mg/kg/injection, schedule: Q04DX003 (ip), vehicle: saline with Tween-80

Measured: T/C

COc1cc(NC(C)CCCN)c2nc(OCc3ccccc3)ccc2c1 (stereo not drawn)
inactive: dose: 6.25 mg/kg/injection, schedule: Q01DX009 (ip), vehicle: saline with Tween-80 96 % of control | dose: 6.25 mg/kg/injection, schedule: Q04DX003 (ip), vehicle: saline with Tween-80 96 % of control | dose: 12.5 mg/kg/injection, schedule: Q01DX009 (ip), vehicle: saline with Tween-80 98 % of control | dose: 12.5 mg/kg/injection, schedule: Q04DX003 (ip), vehicle: saline with Tween-80 93 % of control | dose: 25.0 mg/kg/injection, schedule: Q01DX009 (ip), vehicle: saline with Tween-80 97 % of control | dose: 25.0 mg/kg/injection, schedule: Q04DX003 (ip), vehicle: saline with Tween-80 99 % of control

O=C(Oc1c(Cl)cc([N+](=O)[O-])cc1[N+](=O)[O-])Sc1ccccc1
inactive: [1] 103 % of control | [2] 100 % of control | [3] 100 % of control

C/C=C1\CN(C)[C@H]2Cc3c([nH]c4ccccc34)[C@@H](c3cc4[nH]c5c(c4cc3OC)CCN3C[C@H]4C[C@H](CC)[C@H]3[C@@]5(C(=O)OC)C4)C[C@H]1C2C(=O)OC (stereo partly drawn)
inactive: dose: 30.0 mg/kg/injection, schedule: Q01DX Z (ip), vehicle: water 106 % of control | dose: 45.0 mg/kg/injection, schedule: Q01DX Z (ip), vehicle: water 100 % of control and 102 % of control | dose: 45.0 mg/kg/injection, schedule: Q02DX Z (ip), vehicle: water 101 % of control | dose: 60.0 mg/kg/injection, schedule: Q01DX Z (ip), vehicle: water 96 % of control and 101 % of control | dose: 60.0 mg/kg/injection, schedule: Q02DX Z (ip), vehicle: water 104 % of control | dose: 70.0 mg/kg/injection, schedule: Q02DX Z (ip), vehicle: water 102 % of control | dose: 75.0 mg/kg/injection, schedule: Q01DX Z (ip), vehicle: water 100 % of control | dose: 90.0 mg/kg/injection, schedule: Q01DX Z (ip), vehicle: water 100 % of control

O=C(Oc1ccc(Br)cc1)c1cc([N+](=O)[O-])ccc1O
inactive: [4] 98 % of control | [5] 104 % of control | [6] 103 % of control

CC(=O)OC(C(=O)NC(CC(C)C)C(=O)O)c1ccccc1 (stereo not drawn)
inactive: dose: 100.0 mg/kg/injection, schedule: Q01DX001 (ip), vehicle: acetone 98 % of control | dose: 200.0 mg/kg/injection, schedule: Q01DX001 (ip), vehicle: acetone 94 % of control | dose: 400.0 mg/kg/injection, schedule: Q01DX001 (ip), vehicle: acetone 98 % of control

Cc1ncc(CCl)n1Cc1ccccc1
inactive: dose: 6.25 mg/kg/injection, schedule: Q04DX002 (ip), vehicle: saline 95 % of control and 87 % of control | dose: 12.5 mg/kg/injection, schedule: Q04DX002 (ip), vehicle: Klucel (hydroxypropylcellulose) (HPC) 110 % of control | dose: 12.5 mg/kg/injection, schedule: Q04DX002 (ip), vehicle: saline 114 % of control and 90 % of control | dose: 25.0 mg/kg/injection, schedule: Q01DX009 (ip), vehicle: saline 94 % of control and 104 % of control | dose: 25.0 mg/kg/injection, schedule: Q04DX002 (ip), vehicle: Klucel (hydroxypropylcellulose) (HPC) 95 % of control | [7] 96 % of control | dose: 50.0 mg/kg/injection, schedule: Q01DX009 (ip), vehicle: saline 93 % of control and 119 % of control | dose: 50.0 mg/kg/injection, schedule: Q04DX002 (ip), vehicle: Klucel (hydroxypropylcellulose) (HPC) 100 % of control | [4] 97 % of control | dose: 100.0 mg/kg/injection, schedule: Q01DX009 (ip), vehicle: saline 89 % of control and 90 % of control | dose: 100.0 mg/kg/injection, schedule: Q04DX003 (ip), vehicle: saline 90 % of control | dose: 200.0 mg/kg/injection, schedule: Q04DX003 (ip), vehicle: saline 93 % of control

CC1([N+](=O)[O-])COP(=O)(NC2CCCC2)OC1 (stereo not drawn)
inactive: [7] 106 % of control | [4] 108 % of control | [5] 102 % of control

NC(N)=NCCCC(NC(=O)OCc1ccccc1)C(=O)Nc1ccc2ccccc2c1 (stereo not drawn)
inactive: [8] 102 % of control | [9] 103 % of control

COc1ccc(Cl)cc1NC(=O)OCC(Cl)(Cl)Cl
inactive: dose: 100.0 mg/kg/injection, schedule: Q01DX001 (ip), vehicle: saline with Tween-80 95 % of control | [10] 100 % of control and 102 % of control | [1] 93 % of control and 91 % of control | [11] 103 % of control | dose: 200.0 mg/kg/injection, schedule: Q01DX001 (ip), vehicle: saline with Tween-80 94 % of control | [12] 96 % of control and 115 % of control | [2] 94 % of control and 101 % of control | [13] 94 % of control | dose: 400.0 mg/kg/injection, schedule: Q01DX001 (ip), vehicle: saline with Tween-80 94 % of control | [14] 100 % of control and 91 % of control | [3] 97 % of control and 108 % of control | [15] 97 % of control

Cc1ccccc1NC=O
inactive: [10] 101 % of control | [11] 87 % of control | [12] 101 % of control | [13] 91 % of control | [15] 100 % of control

CC1=CC(=O)C(CO)=CC1=O
inactive: dose: 0.09 mg/kg/injection, schedule: Q01DX009 (ip), vehicle: saline with Tween-80 93 % of control | dose: 0.18 mg/kg/injection, schedule: Q01DX009 (ip), vehicle: saline with Tween-80 97 % of control | dose: 0.37 mg/kg/injection, schedule: Q01DX009 (ip), vehicle: saline with Tween-80 104 % of control | dose: 3.0 mg/kg/injection, schedule: Q01DX009 (ip), vehicle: other 105 % of control | dose: 3.0 mg/kg/injection, schedule: Q04DX002 (ip), vehicle: other 107 % of control | dose: 6.0 mg/kg/injection, schedule: Q01DX009 (ip), vehicle: other 91 % of control | dose: 6.0 mg/kg/injection, schedule: Q04DX002 (ip), vehicle: other 96 % of control | dose: 12.5 mg/kg/injection, schedule: Q04DX002 (ip), vehicle: other 86 % of control

C=COC(=O)c1ccccc1 (tested in a mixture with another compound)
inactive: dose: 100.0 mg/kg/injection, schedule: Q01DX001 (ip), vehicle: other 97 % of control | [4] 110 % of control [middle of 4 runs] | dose: 200.0 mg/kg/injection, schedule: Q01DX001 (ip), vehicle: other 97 % of control | [5] 97 % of control and 105 % of control and 108 % of control | dose: 400.0 mg/kg/injection, schedule: Q01DX001 (ip), vehicle: other 86 % of control | [6] 101 % of control and 105 % of control and 108 % of control

Cc1cc([N+](=O)[O-])c(Nc2ccc(F)cc2)c([N+](=O)[O-])c1
inactive: [10] 97 % of control | [11] 105 % of control | [12] 92 % of control | [13] 97 % of control | [14] 94 % of control | [15] 100 % of control

COc1cc2c(cc1OC)-c1nc(C)sc1CC2
inactive: [11] 98 % of control | [13] 95 % of control | [15] 98 % of control

O=c1[nH]c2nc3ccccc3nc2c(=O)n1OS(=O)(=O)c1ccccc1
inactive: [8] 96 % of control | [9] 100 % of control | dose: 400.0 mg/kg/injection, schedule: Q01DX009 (ip), vehicle: Klucel (hydroxypropylcellulose) (HPC) 98 % of control

Oc1c(Br)cc(Br)cc1C=Nc1ccc(Br)cc1.Oc1c(Br)cc(Br)cc1C=Nc1ccc(Br)cc1.[Co]
inactive: [11] 95 % of control | [13] 95 % of control | [15] 95 % of control

O=C(O)CC(c1ccccc1)n1ccc(=O)[nH]c1=O (stereo not drawn)
inactive: dose: 25.0 mg/kg/injection, schedule: Q01DX001 (ip), vehicle: Klucel (hydroxypropylcellulose) (HPC) 103 % of control | dose: 50.0 mg/kg/injection, schedule: Q01DX001 (ip), vehicle: Klucel (hydroxypropylcellulose) (HPC) 106 % of control | dose: 100.0 mg/kg/injection, schedule: Q01DX001 (ip), vehicle: Klucel (hydroxypropylcellulose) (HPC) 101 % of control

CCOc1ccn(C2OC(CI)C(OC3OC(COC(C)=O)C(OC(C)=O)C(OC(C)=O)C3OC(C)=O)C(OC(C)=O)C2OC(C)=O)c(=O)n1 (stereo not drawn)
inactive: dose: 22.5 mg/kg/injection, schedule: Q01DX001 (ip), vehicle: carboxymethylcellulose (CMC) 100 % of control | dose: 45.0 mg/kg/injection, schedule: Q01DX001 (ip), vehicle: carboxymethylcellulose (CMC) 100 % of control | dose: 90.0 mg/kg/injection, schedule: Q01DX001 (ip), vehicle: carboxymethylcellulose (CMC) 97 % of control | dose: 180.0 mg/kg/injection, schedule: Q01DX001 (ip), vehicle: carboxymethylcellulose (CMC) 103 % of control
